According to publication PMC5515969, “Effects of 31 FDA approved small-molecule kinase inhibitors on isolated rat liver mitochondria” (Archives of Toxicology, 2016):
Counter-ions that a name gives are not always drawn. Like-named read-outs stand apart in the source and are kept apart here.

What was measured:
[1] = tested on: isolated rat liver mitochondria; conditions: positive control alamethicin treated samples
[2] = parameters: method as in product labeling; conditions: ref product labeling, cited from earlier work
[3] = tested on: isolated rat liver mitochondria; experiment: Mitochondrial swelling (absorbance at 535 nm); assay type: biochemical; conditions: difference in signal between KI and DMSO treated samples at the end of experiments; for Swelling 5XCmax: key: 0 indicates that the drug had no effects (negative)
[4] = cited from earlier work
[5] = tested on: RCC I; experiment: RCC I activity in submitochondrial particles; assay type: biochemical, rat; parameters: key to RCC I at 10XCmax / RCC I at 100XCmax / RCC I at 50XCmax / RCC I at 30XCmax / RCC I at 20XCmax: activity relative to DMSO-treated controls (control set as 1 = 100%); conditions: 10XCmax
Method in brief: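 Abs 340 nm (I/V) or 600 nm (II), 1-min reads × 6 min; 550 nm (III, IV), 10-s reads × 2 min. RCC I = rotenone-free minus rotenone rate. DMSO control = 1.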

[6] = Solubility of drug in DMSO stock / reaction buffer at multiples of Cmax; assay type: physicochemical
Description: (§1) Supplement 204_2016_1918_MOESM3_ESM.xlsx, sheet "Sheet1" | column: 100 Cmax; 50 Cmax; note

[7] = cited from earlier work; remark: listed apart in the source
[8] = tested on: isolated rat liver mitochondria; experiment: Mitochondrial oxygen consumption (glutamate/malate or succinate driven, state 4 and state 3); assay type: biochemical; conditions: DMSO treated samples set as 1; for State 3 respiration driven by succinate at 10XCmax: key: 0 indicates that the drug had no effects (negative); for State 3 respiration driven by succinate at 1XCmax: key: 0 indicates that the drug had no effects (negative)
Method in brief: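 Rat liver mitochondria (1 mg/ml protein) exposed 5 min to kinase inhibitors in 0.1% DMSO, then O2 consumption measured by Clark-type electrode with glutamate/malate or succinate (state 4), ADP added after 3 min (state 3). Rates normalized to 0.1% DMSO controls set to 1.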

[9] = tested on: isolated rat liver mitochondria; experiment: Mitochondrial inner membrane potential (MMP), Rhodamine 123; assay type: biochemical; conditions: difference in signal between KI and DMSO treated samples at the end of experiments
Description: Fig. 3 KI effects on mitochondrial inner membrane potential (MMP). […] In a, c, data are means and standard derivations from three separate experiments. *p < 0.05 as compared to DMSO-treated samples at the end of experiments. In b, data are means of two independent experiments

[10] = tested on: isolated rat liver mitochondria; experiment: Mitochondrial ROS production (CM-H2DCFDA); conditions: DMSO treated samples set as 1
[11] = target: T1, RCC II (Rattus norvegicus, UniProt P21913+Q641Z9+Q6PCT8+Q920L2); experiment: RCC II activity in submitochondrial particles; assay type: biochemical; parameters: key: activity relative to DMSO-treated controls (control set as 1 = 100%)
T1 construct: Submitochondrial particles were prepared by subjecting the intact mitochondria to three successive freeze–thaw cycles; from tissue; host or cells: rat liver mitochondria, used as submitochondrial particles
Method in brief: (§2)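 Kinase inhibitors were preincubated 15 min with submitochondrial particles (1 mg/ml) before complex activities were measured. RCC I was the rotenone-sensitive portion (activity without minus with rotenone). RCC I/V was read at 340 nm and RCC II at 600 nm every 1 min for 6 min. RCC III and IV were read at 550 nm every 10 s for 2 min. Activities are normalized to DMSO controls set as 1.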

[12] = tested on: RCC V; experiment: RCC V activity in submitochondrial particles; assay type: biochemical, rat; for RCC V at 5XCmax: key: 0 indicates that the drug had no effects (negative)
Method in brief: as §2

[13] = tested on: RCC IV; experiment: RCC IV activity in submitochondrial particles; assay type: biochemical, rat; parameters: key to RCC IV at 50XCmax / RCC IV at 100XCmax: activity relative to DMSO-treated controls (control set as 1 = 100%); conditions: 50XCmax; DMSO treated samples set as 1; in %
Method in brief: as §2

[14] = Solubility of DMSO stock for 100X/50X Cmax testing; assay type: physicochemical
Description: as §1

[15] = tested on: RCC III; experiment: RCC III activity in submitochondrial particles; assay type: biochemical, rat; parameters: key to RCC III at 100XCmax: activity relative to DMSO-treated controls (control set as 1 = 100%); conditions: 100XCmax
Method in brief: as §2

[16] = in vivo; cited from earlier work
[17] = relative to DMSO treated samples
[18] = 50XCmax, DMSO treated samples set as 1

T1 sequence (Q920L2 35-656): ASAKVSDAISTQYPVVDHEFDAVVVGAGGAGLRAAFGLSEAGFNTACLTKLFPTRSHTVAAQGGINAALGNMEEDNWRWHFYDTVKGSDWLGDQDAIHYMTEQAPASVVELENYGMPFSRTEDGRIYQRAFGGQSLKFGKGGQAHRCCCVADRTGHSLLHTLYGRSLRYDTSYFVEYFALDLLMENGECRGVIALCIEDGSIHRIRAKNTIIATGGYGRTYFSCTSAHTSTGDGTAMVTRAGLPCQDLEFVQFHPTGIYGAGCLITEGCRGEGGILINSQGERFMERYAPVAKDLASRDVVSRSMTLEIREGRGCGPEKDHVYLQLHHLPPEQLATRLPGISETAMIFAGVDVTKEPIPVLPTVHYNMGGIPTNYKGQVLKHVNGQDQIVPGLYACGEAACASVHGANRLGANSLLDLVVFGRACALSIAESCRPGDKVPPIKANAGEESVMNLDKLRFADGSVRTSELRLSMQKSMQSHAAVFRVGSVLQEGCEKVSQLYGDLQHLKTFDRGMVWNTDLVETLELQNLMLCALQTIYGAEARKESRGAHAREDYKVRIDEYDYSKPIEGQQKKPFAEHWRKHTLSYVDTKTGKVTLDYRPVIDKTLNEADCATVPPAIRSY
T1 sequence (P21913 31-282): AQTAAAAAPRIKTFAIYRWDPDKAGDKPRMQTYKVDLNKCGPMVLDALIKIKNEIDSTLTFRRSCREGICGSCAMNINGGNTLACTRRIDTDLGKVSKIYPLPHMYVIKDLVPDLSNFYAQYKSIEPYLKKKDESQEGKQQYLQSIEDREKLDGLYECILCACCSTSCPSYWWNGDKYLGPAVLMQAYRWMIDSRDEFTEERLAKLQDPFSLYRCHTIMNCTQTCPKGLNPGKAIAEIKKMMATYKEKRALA
T1 sequence (Q641Z9 1-169): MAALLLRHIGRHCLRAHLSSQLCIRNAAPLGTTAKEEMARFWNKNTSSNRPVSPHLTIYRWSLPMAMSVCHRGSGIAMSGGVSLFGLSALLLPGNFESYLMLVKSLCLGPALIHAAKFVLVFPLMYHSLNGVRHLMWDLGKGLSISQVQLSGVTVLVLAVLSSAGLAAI
T1 sequence (Q6PCT8 57-159): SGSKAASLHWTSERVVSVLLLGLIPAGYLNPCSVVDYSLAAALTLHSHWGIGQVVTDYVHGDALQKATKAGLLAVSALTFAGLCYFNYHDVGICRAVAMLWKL

C#Cc1cccc(Nc2ncnc3cc(OCCOC)c(OCCOC)cc23)c1 [erlotinib hydrochloride]
Cytochrome c release 1XCmax [1]: 0 | Cytochrome c release 2.5XCmax [1]: 0 | Cytochrome c release 5XCmax [1]: 0 | Cytochrome c release 10XCmax [1]: 0 | Labeling for cardiotoxicity ([2]; BBW: black box warning, W&P: Warnings and Precautions): W&P: Myocardial Infarction/Ischemia | Potential for cardiotoxicity (based on labeling) [2]: 1 | Swelling 1XCmax [3]: 0 | Swelling 2.5XCmax [3]: 0 | Swelling 5XCmax [3]: 0 | Swelling 10XCmax [3]: 0 | DILI potential (based on labeling) ([4]; 1 = DILI positive, 0 = negative, ref product labeling): 1 | Labeling for DILI ([4]; in vivo): W&P: fatal DILI | RCC I at 10XCmax [5, 17]: 0 | Solubility of stock for 50 Cmax ([6]; DMSO stock for 50 Cmax): not soluble | Solubility of stock for 100 Cmax ([6]; DMSO stock for 100 Cmax): not soluble | Cmax ([7]; read-out: Cmax at µM, therapeutic maximal blood concentration, ref product labeling): 3.44 µM | Cmax ([7]; therapeutic maximal blood concentration, ref product labeling): 1480 ng/mL | State 3 respiration driven by glutamate/malate at 1XCmax ([8]; 1XCmax): 0 | State 3 respiration driven by succinate at 1XCmax ([8]; 1XCmax): 0 | State 4 respiration driven by glutamate/malate at 1XCmax ([8]; 1XCmax): 0 | State 4 respiration driven by succinate at 1XCmax ([8]; 1XCmax): 0 | State 3 respiration driven by glutamate/malate at 2.5XCmax ([8]; 2.5XCmax): 0 | State 3 respiration driven by succinate at 2.5XCmax ([8]; 2.5XCmax): 0 | State 4 respiration driven by glutamate/malate at 2.5XCmax ([8]; 2.5XCmax): 0 | State 4 respiration driven by succinate at 2.5XCmax ([8]; 2.5XCmax): 0 | State 3 respiration driven by glutamate/malate at 5XCmax ([8]; 5XCmax): 0 | State 3 respiration driven by succinate at 5XCmax ([8]; 5XCmax): 0 | State 4 respiration driven by glutamate/malate at 5XCmax ([8]; 5XCmax): 0 | State 4 respiration driven by succinate at 5XCmax ([8]; 5XCmax): 0 | State 3 respiration driven by glutamate/malate at 10XCmax ([8]; 10XCmax): 0 | State 3 respiration driven by succinate at 10XCmax ([8]; 10XCmax): 0 | State 4 respiration driven by glutamate/malate at 10XCmax ([8]; 10XCmax): 0 | State 4 respiration driven by succinate at 10XCmax ([8]; 10XCmax): 0 | MMP measured by Rhodamine 123 at 1XCmax [9]: 0 | MMP measured by Rhodamine 123 at 2.5XCmax [9]: 0 | MMP measured by Rhodamine 123 at 5XCmax [9]: 0 | MMP measured by Rhodamine 123 at 10XCmax [9]: 0 | ROS measured by CM-H2DCFDA at 1XCmax [10]: 0 | ROS measured by CM-H2DCFDA at 2.5XCmax [10]: 0 | ROS measured by CM-H2DCFDA at 5XCmax [10]: 0 | ROS measured by CM-H2DCFDA at 10XCmax [10]: 0 | RCC II at 1.0XCmax [11, 17]: 0 | RCC II at 2.5XCmax [11, 17]: 0 | RCC II at 5XCmax [11, 17]: 0 | RCC II at 10XCmax [11, 17]: 0 | RCC V at 5XCmax [12, 17]: 0 | RCC V at 10XCmax ([12]; 10XCmax, relative to DMSO treated samples): 83.52±2.96

C=CC(=O)Nc1cc(Nc2nccc(-c3cn(C)c4ccccc34)n2)c(OC)cc1N(C)CCN(C)C.CS(=O)(=O)O [osimertinib mesylate]
Cytochrome c release 1XCmax [1]: 0 | Cytochrome c release 2.5XCmax [1]: 0 | Cytochrome c release 5XCmax [1]: 0 | Cytochrome c release 10XCmax [1]: 0 | Cytochrome c release 20XCmax ([1]; 20XCmax): 0 | Cytochrome c release 30XCmax ([1]; 30XCmax): 0 | Cytochrome c release 50XCmax ([1]; 50XCmax): 0 | Cytochrome c release 100XCmax ([1]; 100XCmax): 6.58±0.09 percentage of the positive control group | Swelling 1XCmax [3]: 0 | Swelling 2.5XCmax [3]: 0 | Swelling 5XCmax [3]: 0 | Swelling 10XCmax [3]: 0 | Swelling 20XCmax ([3]; 20XCmax): 0 | Swelling 30XCmax ([3]; 30XCmax): 0 | Swelling 50XCmax ([3]; 50XCmax): 0 | Swelling 100XCmax ([3]; 100XCmax): 0 | RCC IV at 50XCmax [13]: 0 | RCC I at 10XCmax ([5]; DMSO treated samples set as 1): 0 | note (DMSO stock) [14]: 50 mM will precipitate | RCC III at 100XCmax [15]: 0 | Cmax ([7]; human, in vivo): 0.5 µM | State 3 respiration driven by succinate at 1XCmax ([8]; 1XCmax): 0 | State 4 respiration driven by succinate at 1XCmax ([8]; 1XCmax): 0 | State 3 respiration driven by succinate at 2.5XCmax ([8]; 2.5XCmax): 0 | State 4 respiration driven by succinate at 2.5XCmax ([8]; 2.5XCmax): 0 | State 3 respiration driven by succinate at 5XCmax ([8]; 5XCmax): 0 | State 4 respiration driven by succinate at 5XCmax ([8]; 5XCmax): 0 | State 3 respiration driven by succinate at 10XCmax ([8]; 10XCmax): 0 | State 4 respiration driven by succinate at 10XCmax ([8]; 10XCmax): 0 | State 3 respiration driven by succinate at 20XCmax ([8]; 20XCmax): 0 | State 4 respiration driven by succinate at 20XCmax ([8]; 20XCmax): 0 | State 3 respiration driven by succinate at 30XCmax ([8]; 30XCmax): 0 | State 4 respiration driven by succinate at 30XCmax ([8]; 30XCmax): 0 | State 3 respiration driven by succinate at 50XCmax ([8]; 50XCmax): 0 | State 4 respiration driven by succinate at 50XCmax ([8]; 50XCmax): 0 | State 3 respiration driven by succinate at 100XCmax ([8]; 100XCmax): 0 | State 4 respiration driven by succinate at 100XCmax ([8]; 100XCmax): 0 | MMP measured by Rhodamine 123 at 1XCmax [9]: 0 | MMP measured by Rhodamine 123 at 2.5XCmax [9]: 0 | MMP measured by Rhodamine 123 at 5XCmax [9]: 0 | MMP measured by Rhodamine 123 at 10XCmax [9]: 0 | MMP measured by Rhodamine 123 at 20XCmax ([9]; 20XCmax): 0 | MMP measured by Rhodamine 123 at 30XCmax ([9]; 30XCmax): 0 | MMP measured by Rhodamine 123 at 50XCmax ([9]; 50XCmax): 0 | MMP measured by Rhodamine 123 at 100XCmax ([9]; 100XCmax): 0 | ROS measured by CM-H2DCFDA at 1XCmax [10]: 0 | ROS measured by CM-H2DCFDA at 2.5XCmax [10]: 0 | ROS measured by CM-H2DCFDA at 5XCmax [10]: 0 | ROS measured by CM-H2DCFDA at 10XCmax [10]: 0 | ROS measured by CM-H2DCFDA at 20XCmax ([10]; 20XCmax): 0 | ROS measured by CM-H2DCFDA at 30XCmax ([10]; 30XCmax): 1.38±0.13 | ROS measured by CM-H2DCFDA at 50XCmax ([10]; 50XCmax): 1.80±0.32 | ROS measured by CM-H2DCFDA at 100XCmax ([10]; 100XCmax): 3.35±0.28 | Labeling for cardiotoxicity [16]: W&P: QTc Interval Prolongation; Cardiomyopathy | Potential for cardiotoxicity (based on labeling) [16]: 1 | RCC II at 1.0XCmax ([11]; DMSO treated samples set as 1): 0 | RCC II at 2.5XCmax ([11]; DMSO treated samples set as 1): 0 | RCC II at 5XCmax ([11]; DMSO treated samples set as 1): 0 | RCC II at 10XCmax ([11]; DMSO treated samples set as 1): 0 | RCC II at 20XCmax ([11]; 20XCmax, DMSO treated samples set as 1): 0 | RCC II at 30XCmax ([11]; 30XCmax, DMSO treated samples set as 1): 0 | RCC II at 50XCmax [11, 18]: 0 | RCC II at 100XCmax ([11]; 100XCmax, DMSO treated samples set as 1): 0 | RCC V at 5XCmax ([12]; DMSO treated samples set as 1): 0 | RCC V at 50XCmax [12, 18]: 0
